Experimental data taken from ChEMBL document CHEMBL4627258, “Photo effect on the CD1d-binding ability of azobenzene-attached analogues of α-GalCer” (Bioorg Med Chem Lett, 2020).

How the values were obtained:
Assay type in all cases: protein assay
[1] = target: T1, Antigen-presenting glycoprotein CD1d (Mus musculus) (UniProt P11609+P11610); test: Binding affinity to CD1d in Traj18 knock out C57BL/6 mouse assessed as restriction ratio for reduction in iNKT/CD1d interaction by FACS analysis relative to control
[2] = target: T1, Antigen-presenting glycoprotein CD1d (Mus musculus); test: Binding affinity to WTB6 mouse spleen CD1d assessed as restriction ratio for reduction in iNKT/CD1d interaction by FACS analysis relative to control
[3] = target: T1, Antigen-presenting glycoprotein CD1d (Mus musculus); test: Binding affinity to WTB6 mouse thymus CD1d assessed as restriction ratio for reduction in iNKT/CD1d interaction by FACS analysis relative to control

Row | Ratio [1] [%] | Ratio [2] [%] | Ratio [3] [%] | Compound
1 | < 0.02 | 0.42 | 0.4 | CCCCCCCCCCCCCC[C@@H](O)[C@@H](O)[C@H](CO[C@H]1O[C@H](CO)[C@H](O)[C@H](O)[C@H]1O)NC(=O)CCCCCCOc1ccc(/N=N\c2ccccc2)cc1
2 | < 0.02 | 0.48 | 0.37 | CCCCCCCCCCCCCC[C@@H](O)[C@@H](O)[C@H](CO[C@H]1O[C@H](CO)[C@H](O)[C@H](O)[C@H]1O)NC(=O)CCCCCCCCOc1ccc(/N=N\c2ccccc2)cc1
3 | 0.28 | 0.06 | 0.09 | CCCCCCCCCCCCCC[C@@H](O)[C@@H](O)[C@H](CO[C@H]1O[C@H](CO)[C@H](O)[C@H](O)[C@H]1O)NC(=O)CCCCOc1ccc(/N=N/c2ccccc2)cc1

Further lines, the compound ahead of its results:

Row | Compound | Ratio [1] [%] | Ratio [2] [%] | Ratio [3] [%]
4 | CCCCCCCCCCCCCC[C@@H](O)[C@@H](O)[C@H](CO[C@H]1O[C@H](CO)[C@H](O)[C@H](O)[C@H]1O)NC(=O)CCCCOc1ccc(/N=N\c2ccccc2)cc1 | 0.57 | 0.05 | 0.05
5 | CCCCCCCCCCCCCC[C@@H](O)[C@@H](O)[C@H](CO[C@H]1O[C@H](CO)[C@H](O)[C@H](O)[C@H]1O)NC(=O)CCCCCCCCOc1ccc(/N=N/c2ccccc2)cc1 | < 0.02 | 0.4 | 0.28
6 | CCCCCCCCCCCCCCCCCCCCCCCCCC(=O)N[C@@H](CO[C@H]1O[C@H](CO)[C@H](O)[C@H](O)[C@H]1O)[C@H](O)[C@H](O)CCCCCCCCCCCCCC | < 0.02 | 0.66 | 0.45
7 | CCCCCCCCCCCCCC[C@@H](O)[C@@H](O)[C@H](CO[C@H]1O[C@H](CO)[C@H](O)[C@H](O)[C@H]1O)NC(=O)CCCCCCCCCCOc1ccc(/N=N\c2ccccc2)cc1 | < 0.02 | 0.57 | 0.44
8 | CCCCCCCCCCCCCC[C@@H](O)[C@@H](O)[C@H](CO[C@H]1O[C@H](CO)[C@H](O)[C@H](O)[C@H]1O)NC(=O)CCCCCCOc1ccc(/N=N/c2ccccc2)cc1 | < 0.02 | 0.31 | 0.35
9 | CCCCCCCCCCCCCC[C@@H](O)[C@@H](O)[C@H](CO[C@H]1O[C@H](CO)[C@H](O)[C@H](O)[C@H]1O)NC(=O)CCCCCCCCCCOc1ccc(/N=N/c2ccccc2)cc1 | < 0.02 | 0.5 | 0.36
